# Test results from PMC4664181 (ChemMedChem, 2009).
# Entries after “also recorded” stand apart in the source; their conditions may differ. Like-named read-outs stand apart in the source and are kept apart here.
# Columns and labels:
# NR1/NR2B [1] = target: T1, NR1/NR2B (Rattus norvegicus, UniProt Q00960); assay type: cell-based; settings: NR1/NR2B; for EC50: NR = no response up to 1000 μM
# NR1/NR2C [2] = target: T2, NR1/NR2C (Rattus norvegicus, UniProt Q00961); assay type: cell-based; settings: NR1/NR2C; for I/Imax (relative maximal response): relative to maximal response to glutamate (1.0)
# NR1/NR2A [3] = target: T3, NR1/NR2A (Rattus norvegicus, UniProt Q00959); assay type: cell-based; settings: for EC50: NR = no response up to 1000 μM
# T3 sequence (Q00959 23-1464, other chains not shown): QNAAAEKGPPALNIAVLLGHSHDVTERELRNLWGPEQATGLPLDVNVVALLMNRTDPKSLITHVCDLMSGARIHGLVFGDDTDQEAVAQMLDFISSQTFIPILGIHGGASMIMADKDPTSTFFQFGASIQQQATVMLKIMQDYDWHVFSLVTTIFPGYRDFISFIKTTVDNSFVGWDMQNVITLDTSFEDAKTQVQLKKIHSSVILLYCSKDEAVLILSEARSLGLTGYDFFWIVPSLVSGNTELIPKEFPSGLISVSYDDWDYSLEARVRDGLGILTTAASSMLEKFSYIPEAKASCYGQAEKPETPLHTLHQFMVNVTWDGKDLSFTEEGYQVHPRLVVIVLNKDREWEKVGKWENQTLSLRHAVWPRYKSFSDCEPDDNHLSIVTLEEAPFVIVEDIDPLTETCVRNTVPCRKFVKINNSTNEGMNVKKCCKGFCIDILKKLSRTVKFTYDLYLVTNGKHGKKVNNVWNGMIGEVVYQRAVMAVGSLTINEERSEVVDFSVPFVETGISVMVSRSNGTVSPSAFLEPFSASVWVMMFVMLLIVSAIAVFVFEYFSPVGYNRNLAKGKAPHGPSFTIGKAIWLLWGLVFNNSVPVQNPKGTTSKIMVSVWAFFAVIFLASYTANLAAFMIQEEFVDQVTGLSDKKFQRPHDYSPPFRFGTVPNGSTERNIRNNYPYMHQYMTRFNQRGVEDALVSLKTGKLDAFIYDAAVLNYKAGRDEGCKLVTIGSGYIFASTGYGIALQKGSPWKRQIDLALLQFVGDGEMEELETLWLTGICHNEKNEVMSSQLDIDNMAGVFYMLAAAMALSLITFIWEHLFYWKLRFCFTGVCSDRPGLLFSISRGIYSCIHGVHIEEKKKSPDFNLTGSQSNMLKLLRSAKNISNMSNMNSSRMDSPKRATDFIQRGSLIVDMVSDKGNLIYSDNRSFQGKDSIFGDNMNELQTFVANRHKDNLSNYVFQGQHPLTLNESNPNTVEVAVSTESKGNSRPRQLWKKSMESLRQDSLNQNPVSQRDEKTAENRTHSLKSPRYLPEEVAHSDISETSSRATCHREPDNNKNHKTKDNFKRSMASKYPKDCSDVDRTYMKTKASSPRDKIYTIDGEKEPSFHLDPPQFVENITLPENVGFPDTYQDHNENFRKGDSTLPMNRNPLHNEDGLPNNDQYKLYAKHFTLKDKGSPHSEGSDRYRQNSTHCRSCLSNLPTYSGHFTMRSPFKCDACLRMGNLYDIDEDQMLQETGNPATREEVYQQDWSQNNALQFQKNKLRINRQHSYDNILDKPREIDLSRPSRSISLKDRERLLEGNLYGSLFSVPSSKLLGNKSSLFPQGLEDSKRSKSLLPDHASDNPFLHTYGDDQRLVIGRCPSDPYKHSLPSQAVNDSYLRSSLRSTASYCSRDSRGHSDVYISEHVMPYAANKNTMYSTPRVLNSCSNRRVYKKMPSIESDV
# native NMDA receptors [4] = assay: Radioligand binding assay; settings: rat brain synaptosomes; for [3H]CGP39653 mean pKi ± SEM: three to five experiments; for Ki: read-out: [3H]CGP39653 Ki, mean of three to five experiments
# NR1/NR2D [5] = target: T4, NR1/NR2D (Rattus norvegicus, UniProt Q62645); assay type: cell-based; settings: for Agonist activity (in words) / EC50 / pEC50 (mean ± SEM) / I/Imax (relative maximal response): NR1/NR2D; for I/Imax (relative maximal response): relative to maximal response to glutamate (1.0)
# T4 sequence (Q62645 28-1323, other chains not shown): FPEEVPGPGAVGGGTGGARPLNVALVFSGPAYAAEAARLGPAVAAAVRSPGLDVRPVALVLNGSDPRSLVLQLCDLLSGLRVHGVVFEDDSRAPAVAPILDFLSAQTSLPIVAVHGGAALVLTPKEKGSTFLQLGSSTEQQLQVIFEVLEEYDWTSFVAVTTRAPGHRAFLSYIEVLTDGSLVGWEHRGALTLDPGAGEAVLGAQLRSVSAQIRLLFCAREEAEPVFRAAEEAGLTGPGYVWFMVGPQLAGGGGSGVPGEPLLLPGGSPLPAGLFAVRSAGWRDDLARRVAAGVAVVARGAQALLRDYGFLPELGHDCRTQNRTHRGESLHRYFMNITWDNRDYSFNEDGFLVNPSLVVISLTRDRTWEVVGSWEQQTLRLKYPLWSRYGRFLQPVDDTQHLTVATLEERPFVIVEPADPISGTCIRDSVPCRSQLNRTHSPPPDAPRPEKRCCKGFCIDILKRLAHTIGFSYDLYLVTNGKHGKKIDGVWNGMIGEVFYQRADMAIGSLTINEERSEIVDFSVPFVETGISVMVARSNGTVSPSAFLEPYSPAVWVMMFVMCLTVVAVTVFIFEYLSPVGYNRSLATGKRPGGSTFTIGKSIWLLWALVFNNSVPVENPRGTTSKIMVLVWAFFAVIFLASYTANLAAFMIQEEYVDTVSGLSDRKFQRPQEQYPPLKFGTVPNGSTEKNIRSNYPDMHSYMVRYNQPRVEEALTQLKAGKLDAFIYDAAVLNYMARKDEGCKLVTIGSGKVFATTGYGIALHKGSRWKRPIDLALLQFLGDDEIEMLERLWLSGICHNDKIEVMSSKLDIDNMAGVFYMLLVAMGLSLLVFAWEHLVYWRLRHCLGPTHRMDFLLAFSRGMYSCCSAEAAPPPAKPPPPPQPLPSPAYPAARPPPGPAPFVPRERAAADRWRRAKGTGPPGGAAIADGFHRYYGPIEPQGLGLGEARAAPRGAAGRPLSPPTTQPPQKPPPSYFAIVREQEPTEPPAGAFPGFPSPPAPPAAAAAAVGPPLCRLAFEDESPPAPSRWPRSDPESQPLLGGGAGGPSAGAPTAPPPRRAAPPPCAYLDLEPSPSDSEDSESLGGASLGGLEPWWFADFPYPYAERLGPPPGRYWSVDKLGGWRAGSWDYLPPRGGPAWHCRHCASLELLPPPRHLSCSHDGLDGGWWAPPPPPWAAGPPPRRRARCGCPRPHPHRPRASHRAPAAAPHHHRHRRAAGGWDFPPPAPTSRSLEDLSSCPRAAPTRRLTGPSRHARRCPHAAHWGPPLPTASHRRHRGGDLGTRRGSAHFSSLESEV
# NR1/NR2B [6] = target: NR1/NR2B (Rattus norvegicus, UniProt P35439+Q00960); assay type: cell-based
# NR1/NR2C [7] = target: NR1/NR2C (Rattus norvegicus, UniProt P35439+Q00961); assay type: cell-based
# NR1/NR2D [8] = target: NR1/NR2D (Rattus norvegicus, UniProt P35439+Q62645); assay type: cell-based
# NR1/NR2D (Rattus norvegicus, UniProt P35439+Q62645), sequence (Q62645 28-1323, other chains not shown): as above
# NR1/NR2D [9] = target: T4, NR1/NR2D; settings: cited from earlier work
# [10] = test system: NR2A (Y730 to phenylalanine); settings: mutant vs wild type NR2A; cited from earlier work
# NR2D(Y732F) = settings: mutant vs wild type NR2D; cited from earlier work
# NR1/NR2B [11] = target: T1, NR1/NR2B; settings: cited from earlier work
# NR1/NR2A [12] = target: T3, NR1/NR2A; settings: cited from earlier work
# NR1/NR2C [13] = target: T2, NR1/NR2C; settings: cited from earlier work
# native NMDA receptors [14] = settings: read-out: [3H]CGP39653 Ki; rat brain synaptosomes; cited from earlier work
# [15] = test system: native excitatory amino acid transporters (EAATs); settings: cited from earlier work
# [16] = relative to maximal response to glutamate (1.0)
# T1 sequence (Q00960 27-1482, other chains not shown): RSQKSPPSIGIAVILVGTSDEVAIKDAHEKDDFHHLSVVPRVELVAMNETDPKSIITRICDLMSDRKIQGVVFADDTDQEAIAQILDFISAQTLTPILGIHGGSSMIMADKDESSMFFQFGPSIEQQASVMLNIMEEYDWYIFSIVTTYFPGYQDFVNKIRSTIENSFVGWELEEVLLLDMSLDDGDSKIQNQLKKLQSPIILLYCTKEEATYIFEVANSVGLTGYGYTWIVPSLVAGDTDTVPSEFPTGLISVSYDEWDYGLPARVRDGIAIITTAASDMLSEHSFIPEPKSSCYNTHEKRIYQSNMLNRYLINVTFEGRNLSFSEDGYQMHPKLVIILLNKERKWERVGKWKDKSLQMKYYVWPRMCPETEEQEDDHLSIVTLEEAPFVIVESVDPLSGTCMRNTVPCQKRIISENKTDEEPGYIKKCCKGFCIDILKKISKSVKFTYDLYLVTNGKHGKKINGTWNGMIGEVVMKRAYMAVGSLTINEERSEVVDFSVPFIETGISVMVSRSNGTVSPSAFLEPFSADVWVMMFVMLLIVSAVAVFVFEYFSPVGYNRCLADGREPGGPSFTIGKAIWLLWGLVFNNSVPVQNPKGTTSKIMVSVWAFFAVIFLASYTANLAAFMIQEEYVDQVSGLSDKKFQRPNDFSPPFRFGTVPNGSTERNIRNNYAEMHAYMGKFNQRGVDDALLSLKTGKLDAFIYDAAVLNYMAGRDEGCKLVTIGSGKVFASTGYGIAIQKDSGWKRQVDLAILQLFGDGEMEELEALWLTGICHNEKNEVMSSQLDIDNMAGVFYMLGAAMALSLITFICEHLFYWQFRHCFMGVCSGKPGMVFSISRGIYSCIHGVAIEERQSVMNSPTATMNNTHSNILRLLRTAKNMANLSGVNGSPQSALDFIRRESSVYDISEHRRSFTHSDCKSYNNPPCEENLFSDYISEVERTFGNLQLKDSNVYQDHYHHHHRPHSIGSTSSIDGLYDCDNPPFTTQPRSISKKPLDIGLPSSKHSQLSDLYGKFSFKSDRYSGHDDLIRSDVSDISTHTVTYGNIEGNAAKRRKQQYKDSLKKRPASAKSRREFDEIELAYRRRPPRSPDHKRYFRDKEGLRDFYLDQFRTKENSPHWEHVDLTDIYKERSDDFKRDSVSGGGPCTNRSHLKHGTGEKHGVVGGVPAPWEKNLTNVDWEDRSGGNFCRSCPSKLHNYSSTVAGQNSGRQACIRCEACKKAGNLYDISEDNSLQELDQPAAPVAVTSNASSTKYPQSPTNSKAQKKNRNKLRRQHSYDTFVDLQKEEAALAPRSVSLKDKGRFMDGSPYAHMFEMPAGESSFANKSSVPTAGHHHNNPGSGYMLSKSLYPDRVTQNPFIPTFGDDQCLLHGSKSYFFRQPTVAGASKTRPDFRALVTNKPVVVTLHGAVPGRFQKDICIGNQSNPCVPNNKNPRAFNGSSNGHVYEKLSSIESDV
structure (smiles),measurement,setting,value
"O=C(O)[C@H]1CN[C@H]1C(=O)O [D-cis-ADC, (2R,3S)-Azetidine-2,3-dicarboxylic acid]",Agonist activity (in words),NR1/NR2B [1],activated
same,EC50,NR1/NR2B [1],> 3000 µM
same,Agonist activity (in words),NR1/NR2C [2],activated; also recorded: partial agonist
same,EC50,NR1/NR2C [2],720 µM
same,pEC50 (mean ± SEM),NR1/NR2C [2],3.15±0.06
same,I/Imax (relative maximal response),NR1/NR2C [2],0.47 ± 0.03
same,EC50,NR1/NR2A [3],> 1000 µM
same,[3H]CGP39653 mean pKi ± SEM,native NMDA receptors [4],4.74 ± 0.13
same,Ki,native NMDA receptors [4],21 µM
same,Agonist activity (in words),NR1/NR2D [5],activated; also recorded: partial agonist
same,EC50,NR1/NR2D [5],230 µM
same,pEC50 (mean ± SEM),NR1/NR2D [5],3.63±0.01
same,I/Imax (relative maximal response),NR1/NR2D [5],0.67 ± 0.01
"O=C(O)[C@@H]1CN[C@H]1C(=O)O [D-trans-ADC, (2R,3R)-Azetidine-2,3-dicarboxylic acid]",EC50,NR1/NR2B [6],> 1000 µM
same,Agonist activity (in words),NR1/NR2B [1],activated
same,Agonist activity (in words),NR1/NR2C [2],activated
same,EC50,NR1/NR2C [7],> 1000 µM
same,EC50,NR1/NR2A [3],> 1000 µM
same,Affinity for glutamate binding site of native NMDA receptors (in words),native NMDA receptors [4],essentially without affinity
same,[3H]CGP39653 mean pKi ± SEM,native NMDA receptors [4],4.05 ± 0.03
same,Ki,native NMDA receptors [4],90 µM
same,EC50,NR1/NR2D [8],660 µM
same,Agonist activity (in words),NR1/NR2D [5],activated
same,I/Imax (relative maximal response),NR1/NR2D [5],0.69 ± 0.01
O=C(O)[C@H]1NC[C@H]1C(=O)O [L-cis-ADC],Agonist activity (in words),NR1/NR2B [1],unable to activate
same,EC50,NR1/NR2B [1],> 1000 µM
same,Agonist activity (in words),NR1/NR2C [2],only at high concentrations (1000 μM) some activation
same,EC50,NR1/NR2C [2],> 1000 µM
same,Agonist activity (in words),NR1/NR2A [3],unable to activate
same,EC50,NR1/NR2A [3],> 1000 µM
same,Affinity for glutamate binding site of native NMDA receptors (in words),native NMDA receptors [4],essentially without affinity
same,Ki,native NMDA receptors [4],> 100 µM
same,Agonist activity (in words),NR1/NR2D [5],only at high concentrations (1000 μM) some activation
same,EC50,NR1/NR2D [5],> 1000 µM
"C[C@H](C[C@H](N)C(=O)O)C(=O)O [SYM2081, (2S,4R)-4-methylglutamate]",Higher potency at NR1/NR2D over NR1/NR2A,NR1/NR2D [9]; NR1/NR2D vs NR1/NR2A,46 fold
"N[C@@H](CCC(=O)O)C(=O)O [glutamate, (S)-glutamate]",Decrease of potency by mutation Y730 to phenylalanine in NR2A,[10],45 fold
same,Change of potency on NR2D(Y732F) (in words),NR2D(Y732F),slightly increased
"CN[C@H](CC(=O)O)C(=O)O [NMDA, N-methyl-D-aspartic acid]",EC50,NR1/NR2B [11],22 µM
same,pEC50 (mean ± SEM),NR1/NR2B [11],4.66±0.03
same,I/Imax (relative maximal response),NR1/NR2B [11]; relative to glutamate (1.0),0.77 ± 0.01
same,EC50,NR1/NR2A [12],75 µM
same,pEC50 (mean ± SEM),NR1/NR2A [12],4.13±0.07
same,I/Imax (relative maximal response),NR1/NR2A [12]; relative to glutamate (1.0),0.90 ± 0.04
same,EC50,NR1/NR2D [9]; NR1/NR2D,8.3 µM
same,pEC50 (mean ± SEM),NR1/NR2D [9]; NR1/NR2D,5.08±0.04
same,I/Imax (relative maximal response),"NR1/NR2D [9]; NR1/NR2D, relative to glutamate (1.0)",0.80 ± 0.02
same,EC50,NR1/NR2C [13],23 µM
same,pEC50 (mean ± SEM),NR1/NR2C [13],4.63±0.02
same,I/Imax (relative maximal response),NR1/NR2C [13]; relative to glutamate (1.0),0.73 ± 0.02
same,Ki,native NMDA receptors [14],6.2 µM
O=C(O)[C@H]1CN[C@@H]1C(=O)O [L-trans-ADC],Affinity at native EAATs (in words),[15],affinity in the medium micromolar range
same,pEC50 (mean ± SEM),NR1/NR2B [1],3.76±0.01
same,EC50,NR1/NR2B [1],170 µM
same,I/Imax (relative maximal response),NR1/NR2B [1]; [16],0.48 ± 0.01
same,EC50,NR1/NR2C [2],95 µM
same,pEC50 (mean ± SEM),NR1/NR2C [2],4.02±0.02
same,I/Imax (relative maximal response),NR1/NR2C [2],0.73 ± 0.03
same,Agonist activity (in words),NR1/NR2A [3],able to (partially) activate
same,pEC50 (mean ± SEM),NR1/NR2A [3],3.32±0.03
same,EC50,NR1/NR2A [3],470 µM
same,I/Imax (relative maximal response),NR1/NR2A [3]; [16],0.38 ± 0.02
same,[3H]CGP39653 mean pKi ± SEM,native NMDA receptors [4],5.04 ± 0.10
same,Ki,native NMDA receptors [4],10 µM
same,EC50,NR1/NR2D [5],50 µM
same,pEC50 (mean ± SEM),NR1/NR2D [5],4.30±0.02
same,Preference (agonist potency) for NR1/NR2D over NR1/NR2A,NR1/NR2D [5]; NR1/NR2D vs NR1/NR2A,9.4 fold
same,Preference (agonist potency) for NR1/NR2D over NR1/NR2B,NR1/NR2D [5]; NR1/NR2D vs NR1/NR2B,3.4 fold
same,Preference (agonist potency) for NR1/NR2D over NR1/NR2C,NR1/NR2D [5]; NR1/NR2D vs NR1/NR2C,1.9 fold
same,I/Imax (relative maximal response),NR1/NR2D [5],0.80 ± 0.01
